Experimental data reported in US20040242456A1, “Herbicidal n-alkysulfonamino derivatives” (priority 2001, published 2004).

Legend:
[1] = system: ECHINO; assay: Pre-emergence herbicidal action; type: in vivo, Echinochloa; design: key: 1=total damage; 9=no action; conditions: 250 g of active ingredient per ha, sprayed immediately after sowing, evaluated after 3 weeks; scale of nine ratings, 1 to 4 good to very good action
Method: (§1) Monocotyledonous and dicotyledonous test plants are sown in standard soil in plastic pots. Immediately after sowing, the test compounds, in the form of an aqueous suspension (prepared from a 25% wettable powder (Example F3, b) according to WO 97/34485) or in the form of an emulsion (prepared from a 25% emulsifiable concentrate (Example F1, c)), are applied by spraying, in an amount corresponding to 250 g of active ingredient per ha (500 litres of water per ha). The test plants are then grown in a greenhouse under optimum conditions. After a test duration of 3 weeks, the test is evaluated in accordance with a scale of nine ratings (1=total damage, 9=no action). Ratings of from 1 to 4 (especially from 1 to 3) indicate good to very good herbicidal action.

[2] = system: EUPHOR; assay: Post-emergence herbicidal action; type: in vivo; conditions: 250 g of active ingredient per ha, sprayed at 4- to 6-leaf stage, evaluated after about 18 days; scale of nine ratings, 1 to 4 good to very good action
Method: (§2) Monocotyledonous and dicotyledonous test plants are grown in standard soil in plastic pots in a greenhouse and, at the 4- to 6-leaf stage, are sprayed with an aqueous suspension of the test compounds of formula I, prepared from a 25% wettable powder (Example F3, b) according to WO 97/34485 or with an emulsion of the test compounds of formula I, prepared from a 25% emulsifiable concentrate (Example F1, c) according to WO 97/34485, in an amount corresponding to 250 g of active ingredient per ha (500 litres of water per ha). The test plants are then grown on in the greenhouse under optimum conditions. After a test duration of about 18 days, the test is evaluated in accordance with a scale of nine ratings (1=total damage, 9=no action). Ratings of from 1 to 4 (especially from 1 to 3) indicate good to very good herbicidal action.

[3] = system: SETARI; assay: Post-emergence herbicidal action; type: in vivo, Setaria; conditions: 250 g of active ingredient per ha, sprayed at 4- to 6-leaf stage, evaluated after about 18 days; scale of nine ratings, 1 to 4 good to very good action
Method: as §2

[4] = system: CHENOP; assay: Pre-emergence herbicidal action; type: in vivo, Chenopodium; design: key: 1=total damage; 9=no action; conditions: 250 g of active ingredient per ha, sprayed immediately after sowing, evaluated after 3 weeks; scale of nine ratings, 1 to 4 good to very good action
Method: as §1

[5] = system: DIGITA; assay: Post-emergence herbicidal action; type: in vivo, Digitaria; design: key: 1=total damage; 9=no action; conditions: 250 g of active ingredient per ha, sprayed at 4- to 6-leaf stage, evaluated after about 18 days; scale of nine ratings, 1 to 4 good to very good action
Method: as §2

[6] = system: AMARAN; assay: Post-emergence herbicidal action; type: in vivo, Amaranthus; design: key: 1=total damage; 9=no action; conditions: 250 g of active ingredient per ha, sprayed at 4- to 6-leaf stage, evaluated after about 18 days; scale of nine ratings, 1 to 4 good to very good action
Method: as §2

[7] = system: AMARAN; assay: Pre-emergence herbicidal action; type: in vivo, Amaranthus; design: key: 1=total damage; 9=no action; conditions: 250 g of active ingredient per ha, sprayed immediately after sowing, evaluated after 3 weeks; scale of nine ratings, 1 to 4 good to very good action
Method: as §1

[8] = system: ABUTIL; assay: Post-emergence herbicidal action; type: in vivo, Abutilon; design: key: 1=total damage; 9=no action; conditions: 250 g of active ingredient per ha, sprayed at 4- to 6-leaf stage, evaluated after about 18 days; scale of nine ratings, 1 to 4 good to very good action
Method: as §2

[9] = system: PANICU; assay: Pre-emergence herbicidal action; type: in vivo; design: key: 1=total damage; 9=no action; conditions: 250 g of active ingredient per ha, sprayed immediately after sowing, evaluated after 3 weeks; scale of nine ratings, 1 to 4 good to very good action
Method: as §1

[10] = system: SETARI; assay: Pre-emergence herbicidal action; type: in vivo, Setaria; design: key: 1=total damage; 9=no action; conditions: 250 g of active ingredient per ha, sprayed immediately after sowing, evaluated after 3 weeks; scale of nine ratings, 1 to 4 good to very good action
Method: as §1

[11] = system: CHENOP; assay: Post-emergence herbicidal action; type: in vivo, Chenopodium; design: key: 1=total damage; 9=no action; conditions: 250 g of active ingredient per ha, sprayed at 4- to 6-leaf stage, evaluated after about 18 days; scale of nine ratings, 1 to 4 good to very good action
Method: as §2

[12] = system: STELLA; assay: Pre-emergence herbicidal action; type: in vivo, Stellaria; design: key: 1=total damage; 9=no action; conditions: 250 g of active ingredient per ha, sprayed immediately after sowing, evaluated after 3 weeks; scale of nine ratings, 1 to 4 good to very good action
Method: as §1

[13] = system: DIGITA; assay: Pre-emergence herbicidal action; type: in vivo, Digitaria; design: key: 1=total damage; 9=no action; conditions: 250 g of active ingredient per ha, sprayed immediately after sowing, evaluated after 3 weeks; scale of nine ratings, 1 to 4 good to very good action
Method: as §1

[14] = system: ECHINO; assay: Post-emergence herbicidal action; type: in vivo, Echinochloa; conditions: 250 g of active ingredient per ha, sprayed at 4- to 6-leaf stage, evaluated after about 18 days; scale of nine ratings, 1 to 4 good to very good action
Method: as §2

[15] = system: ABUTIL; assay: Pre-emergence herbicidal action; type: in vivo, Abutilon; design: key: 1=total damage; 9=no action; conditions: 250 g of active ingredient per ha, sprayed immediately after sowing, evaluated after 3 weeks; scale of nine ratings, 1 to 4 good to very good action
Method: as §1

[16] = system: PANICU; assay: Post-emergence herbicidal action; type: in vivo; design: key: 1=total damage; 9=no action; conditions: 250 g of active ingredient per ha, sprayed at 4- to 6-leaf stage, evaluated after about 18 days; scale of nine ratings, 1 to 4 good to very good action
Method: as §2

| Structure (SMILES) | Pre-emergence action ECHINO, rating [1] | Post-emergence action EUPHOR, rating [2] | Post-emergence action SETARI, rating [3] | Pre-emergence action CHENOP, rating [4] | Post-emergence action DIGITA, rating [5] | Post-emergence action AMARAN, rating [6] | Pre-emergence action AMARAN, rating [7] | Post-emergence action ABUTIL, rating [8] | Pre-emergence action PANICU, rating [9] | Pre-emergence action SETARI, rating [10] | Post-emergence action CHENOP, rating [11] | Pre-emergence action STELLA, rating [12] | Pre-emergence action DIGITA, rating [13] | Post-emergence action ECHINO, rating [14] | Pre-emergence action ABUTIL, rating [15] | Post-emergence action PANICU, rating [16] |
| --- | --- | --- | --- | --- | --- | --- | --- | --- | --- | --- | --- | --- | --- | --- | --- | --- |
| COCCN(C1=C(C(=O)c2ccc(C(F)(F)F)nc2C)C(=O)C(C)(C)C(=O)C1(C)C)S(C)(=O)=O [Example 1.001] | 1 | 2 | 2 | 1 | 1 | 2 | 1 | 1 | 1 | 2 | 1 | 4 | 1 | 2 | 1 | 1 |
| CCS(=O)(=O)N(CCOC)C1=C(C(=O)c2ccc(C(F)(F)F)nc2C)C(=O)C(C)(C)C(=O)C1(C)C [Example 1.007] | 1 | 2 | 2 | 1 | 1 | 2 | 1 | 1 | 1 | 1 | 1 | 1 | 1 | 2 | 1 | 1 |
| COCCN(C1=C(C(=O)c2ccc(C(F)(F)F)nc2C)C(=O)C2CCC1C2)S(C)(=O)=O (stereo not shown) [Example 1.012] | 1 | 2 | 2 |  | 2 | 2 | 1 | 2 | 1 | 1 | 1 | 4 | 1 | 2 | 1 | 2 |
| CCS(=O)(=O)N(CCOC)C1=C(C(=O)c2ccc(C(F)(F)F)nc2C)C(=O)C2CCC1C2 (stereo not shown) [Example 1.013, Ethanesulfonic acid(2-methoxy-ethyl)-[3-(2-methyl-6-trifluoromethyl-pyridine-3-carbonyl)-4-oxo-bicyclo[3.2.1]oct-2-en-2-yl]-amide] | 1 | 2 | 2 | 1 | 2 | 1 | 1 | 2 | 1 | 1 | 1 | 1 | 1 | 2 | 1 | 1 |
| COCCN(C1=C(C(=O)c2ccc(C(F)(F)F)nc2C)C(=O)C2CCC1C2)S(=O)(=O)c1ccccc1 (stereo not shown) [Example 1.027] | 3 |  |  | 9 |  |  | 2 |  | 2 | 2 |  | 9 | 2 |  | 3 |  |
| CCS(=O)(=O)N(Cc1ccccc1)C1=C(C(=O)c2ccc(C(F)(F)F)nc2C)C(=O)C2CCC1C2 (stereo not shown) [Example 1.065] | 1 | 3 | 5 | 2 | 2 | 2 | 2 | 2 | 1 | 1 | 1 | 1 | 1 | 3 | 1 | 2 |
| Cc1nc(C(F)(F)F)ccc1C(=O)C1=C(N(Cc2ccccc2)S(=O)(=O)C(C)C)C2CCC(C2)C1=O (stereo not shown) [Example 1.067] | 2 |  |  | 1 |  |  | 2 |  | 1 | 1 |  | 1 | 1 |  | 2 |  |
| Cc1nc(C(F)(F)F)ccc1C(=O)C1=C(N(Cc2ccccc2)S(=O)(=O)c2ccccc2)C2CCC(C2)C1=O (stereo not shown) [Example 1.079] | 2 |  |  | 2 |  |  | 3 |  | 1 | 6 |  | 2 | 3 |  | 4 |  |
